The assay concerns 991263-137-R1-J2-PDC complex spheroid viability. The assay is described as follows: Anticancer human tumor 991263-137-R1-J2-PDC patient-derived colon adenocarcinoma cell line growth inhibition [POLQ]. The following applies: for viability, T/C: stronger effect = lower value. Here is the method: Multicellular complex tumor spheroid response to Polymerase (POL) inhibitors (novobiocin, ART-558, RP6685) in combination with a variety of drugs and investigational agents in selected tumor cell lines
The POL inhibitors (novobiocin, ART-558, and RP6685) were evaluated both individually and in combination with standard of care and investigational anticancer small molecules within a complex spheroid model of solid tumors. . Complex spheroids include a stromal component modeled by human endothelial cells (HUVEC) and fibroblasts modeled by human mesenchymal stem cells (MSCs). The concentration ranges selected for each drug and investigational agent were based upon clinically achievable concentrations if the clinical Cmax of the agent was known.
Compounds. The drugs and investigational agents: novobiocin (NSC847541), ART-558 (NSC835418), RP-6685 (NSC848927), peposertib (NSC802822), ceralasertib (NSC780249), elimusertib (NSC800525), camonsertib (NSC841442), AZD-1390 (NSC803789), olaparib (NSC753686), talazoparib (NSC767125), rucaparib (NSC756644), sotorasib (NSC818433), MRTX-1133 (NSC836407), SN-38 (NSC673596), topotecan (NSC609699), epotoside (NSC141540), doxorubicin (NSC123127), gemcitabine (NSC613327), 5-fluorouracil (NSC19893), paclitaxel (NSC125973), vemurafenib (NSC761431), MSA-2 (NSC828583), SN-011 (NSC837082), adavosertib (NSC754352), prexasertib (NSC758257), carboplatin (NSC241240) and oxaliplatin (NSC266046), were obtained from the National Cancer Institute (NCI) Developmental Therapeutics Program Chemical Repository (21). The FDA-approved anticancer drug set is available from the Developmental Therapeutics Program at https://dtp.cancer.gov/organization/dscb/obtaining/. […] The stock solutions were prepared in dimethyl sulfoxide (DMSO, Sigma-Aldrich, St. Louis, MO, cat. D2650), except for the platinum compounds which were prepared in saline (Quality Biological, Gaithersburg, MD, cat. 114-055-101), at 800-fold the tested concentration and stored at -70 degrees C prior to their use. All drugs and investigational agents were tested over a range starting from a high concentration at or near the clinical Cmax and decreasing in half-log increments. If the clinical Cmax for an agent had not been determined, the highest concentration tested was 10 microM, except for SN-38, which was tested at a high concentration of 1 microM.
Cell Culture. All cells were maintained in an incubator at 37 degrees C and 5% CO2 with 95% humidity. The PDC lines were cultured according to standard operating procedures established by the NCI PDMR (https://pdmr.cancer.gov). Table 3 of the manuscript, lists the cell lines along with the number of the three cell types plated to form the mct-spheroids and media for tumor cell growth. After thawing, all PDC lines, except 997537-175-T-J1-PDC and 415267-285-R-J2-PDC, were cultured in Matrigel-coated flasks prepared with a working solution of 1X Ham's F-12 nutrient mix, without supplementation (Thermo Fisher Scientific, cat. 11765054), 100 U/mL penicillin-streptomycin (Thermo Fisher Scientific, cat. 15140122), and 2.5% Matrigel (Corning Inc., Corning, NY, cat. 354248) for the first three passages. The two PDC lines 997537-175-T-J1-PDC and 415267-285-R-J2-PDC were cultured on uncoated flasks. The 857933-349-R-J2-PDC line was cultured in 6C/Colon 1B media containing advanced DMEM/F-12 (Thermo Fisher Scientific, cat. 12634028), 10 mM HEPES (Thermo Fisher Scientific, cat. 15630080), 1X GlutaMAX supplement (Thermo Fisher Scientific, cat. 35050061), 0.1 mg/mL primocin (InvivoGen, San Diego, CA, cat. ant-pm-2), 10% defined fetal bovine serum, heat inactivated (HyClone Laboratories Inc., Logan, UT, cat. SH30070.03HI), 50% L-WRN conditioned media (ATCC, cat. CRL-3276), 1.25 mM N-Acetyl-L-cysteine (Sigma-Aldrich, cat. A9165), 10 mM nicotinamide (Sigma-Aldrich, cat. N0636), 1X B-27 supplement (Thermo Fisher Scientific, cat. 17504044), 1X N-2 supplement (Thermo Fisher Scientific, cat. […]

The mark [1] stands for this setting: compound alone, run of 01/08/2024.
The mark [2] stands for this setting: compound alone, run of 01/19/2024.

Several values for one entry are separate records, joined by “and”; a condition that tells them apart may be missing. Equal entries are not always repeated.
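Also: spheroids exposed to compounds for 7 days before readout.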
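For viability, T/C in this document: 100% = DMSO vehicle control viability.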

Take `COC1C(OC(N)=O)C(O)C(Oc2ccc3c(O)c(NC(=O)c4ccc(O)c(CC=C(C)C)c4)c(=O)oc3c2C)OC1(C)C` (configuration not stated): the viability, T/C is, setting by setting: (compound 0.0316 µM) 102% [middle of 12 runs]; (compound 0.316 µM) 103% [middle of 12 runs]. Also, under setting [1], the IC50 is over 10000 nM.
With `COc1cc(C2c3cc4c(cc3C(OC3OC5COC(C)OC5C(O)C3O)C3COC(=O)C23)OCO4)cc(OC)c1O` (configuration not stated), the viability, T/C is, setting by setting: (compound 0.0316 µM) 105% and 96.4% and 99.6%; (compound 0.1 µM) 86.2% and 94.5% and 92.4%; (compound 1 µM) 97.8% and 95.9% and 92.5%; (compound 3.16 µM) 77.9% and 88.6% and 71.9%; (compound 10 µM) 69.9% and 77% and 77.1%. Further, the half-maximal inhibitory concentration (IC50) (curve of compound) was over 10000 nM.
With `COc1ccc([C@@H](O)c2cc(-c3ncnc4cc(N5CCOCC5)ccc34)c(F)cc2Cl)nn1`, the viability, T/C (compound 0.0316 µM) is 105% and 102% and 82.6%; the viability, T/C (compound 0.1 µM) was 84.6% and 103% and 79.1%; the viability, T/C (compound 0.316 µM) was 98.5% and 95.2% and 91.9%; the viability, T/C (compound 1 µM) was 87% and 97.5% and 103%; the viability, T/C (compound 3.16 µM) was 68% and 66.7% and 59.3%; the viability, T/C (compound 10 µM) is 28.5% and 31.4% and 28.6%. Besides, the IC50 (curve of compound) was 5360 nM and 5450 nM and 4480 nM.
`COc1cccc(OCCCN)c1-c1cc(Nc2cnc(C#N)cn2)n[nH]1`: the viability, T/C by setting is: (compound 0.00316 µM) 89.6% and 99.7% and 88.6%; (compound 0.01 µM) 98.1% and 107% and 85.7%; (compound 0.0316 µM) 101% and 94.9% and 94.6%; (compound 0.316 µM) 43.2% and 53.1% and 61.2%; (compound 1 µM) 40.1% and 42.8% and 46.3%. For the same compound, the IC50 (curve of compound) is 90.9 nM and 464 nM and 750 nM.
For the compound `COc1cccc2c1C(=O)c1c(O)c3c(c(O)c1C2=O)CC(O)(C(=O)CO)CC3OC1CC(N)C(O)C(C)O1` (configuration not stated), the viability, T/C was 103% and 95.2% and 99.9% (compound 0.0316 µM); 106% and 91% and 88.5% (compound 0.1 µM); 77% and 85.2% (2×) (compound 0.316 µM); 51% and 54.2% and 48.5% (compound 1 µM); 29.6% and 40.6% and 40.8% (compound 3.16 µM); 41.7% and 36.5% and 38.3% (compound 10 µM). In addition, the IC50 (curve of compound) was 903 nM and 1420 nM and 972 nM.
For `Cc1cccc(N(C)C(=O)C2C(O)CCN2c2nc(C)cc(C(F)(F)F)c2C#N)c1` (configuration not stated), the viability, T/C is 101% [middle of 13 runs] (compound 0.0316 µM), 99.2% [middle of 13 runs] (compound 0.1 µM), 101% [middle of 13 runs] (compound 3.16 µM) and 100% [middle of 13 runs] (compound 10 µM). Besides, the IC50 was over 10000 nM under setting [1] and over 10000 nM under setting [2].
As for `Cn1ncnc1[C@H]1c2n[nH]c(=O)c3cc(F)cc(c23)N[C@@H]1c1ccc(F)cc1`, the viability, T/C is 102% and 97.3% and 87.3% (compound 0.000316 µM); 93.6% and 88.1% and 88.5% (compound 0.001 µM); 102% and 104% and 109% (compound 0.00316 µM); 109% and 105% and 119% (compound 0.01 µM); 89.6% and 101% and 84.5% (compound 0.0316 µM); 106% and 112% and 105% (compound 0.1 µM). Moreover, the IC50 (curve of compound) is over 100 nM.
In the case of `Nc1ccc(C#CCN(C(=O)Cc2ncc(C(F)(F)F)cc2C(F)(F)F)c2ccc(F)cc2)nn1`, the viability, T/C by setting is: (compound 0.0316 µM) 100% [middle of 13 runs]; (compound 0.1 µM) 101% [middle of 13 runs]; (compound 0.316 µM) 99.3% [middle of 13 runs]; (compound 1 µM) 102% [middle of 13 runs]; (compound 3.16 µM) 103% [middle of 13 runs]; (compound 10 µM) 101% [middle of 13 runs]. The 50% inhibitory concentration (IC50) under setting [2] was over 10000 nM.
In the case of `Nc1ccn(C2OC(CO)C(O)C2(F)F)c(=O)n1` (configuration not stated), the viability, T/C reads like this: (compound 0.0316 µM) 90.8% and 85.4% and 75.5%; (compound 0.1 µM) 53.7% and 74.1% and 58.9%; (compound 0.316 µM) 69% and 61.1% and 58.6%; (compound 1 µM) 58.6% and 60.4% and 47.9%; (compound 3.16 µM) 37.6% and 56.2% and 37.2%; (compound 10 µM) 40.8% and 47% and 37.3%.
Take `O=C(c1cc(Cc2n[nH]c(=O)c3ccccc23)ccc1F)N1CCN(C(=O)C2CC2)CC1`: the viability, T/C runs as follows: (compound 0.0316 µM) 106% and 90.8% and 97%; (compound 0.1 µM) 97.2% and 97.7% and 99.1%; (compound 0.316 µM) 84.8% and 95.7% and 101%; (compound 1 µM) 108% and 85.4% and 103%; (compound 3.16 µM) 105% and 92.7% and 98.1%. In addition, the 50% inhibitory concentration (IC50) (curve of compound) is over 10000 nM.
With `O=c1[nH]cc(F)c(=O)[nH]1`, the viability, T/C is 106% and 114% and 96.5% (compound 0.0316 µM); 90.3% and 99.3% and 92.5% (compound 0.1 µM); 76.8% and 93.5% and 94.8% (compound 0.316 µM); 94% and 95.8% and 91% (compound 1 µM); 91.7% and 85.1% and 80.9% (compound 10 µM). Also, the IC50 (curve of compound) was over 10000 nM.

The values are drawn from PubChem BioAssay AID1963828 (Molecular Pharmacology Branch, DTP, NCI, 2024).
